pIC50, pKd, pKi: −log10 of the molar value. Where two headings read alike, the source gives them in different places.

Test [1] concerns the target Opiate Receptor, delta (OP1, DOP) (Homo sapiens, UniProt P41143). Put plainly: Radioligand competition binding, Opiate Receptor, delta (OP1, DOP), [3H]-naltrindole, CHO cells.
The target in a further test is Opiate δ (Homo sapiens, UniProt P41143). Put plainly: Opiate δ receptor binding (Table 1). The settings on record: for pKi: read-out: Opiate δ, Ki; for Fold change: Opiate δ Ki relative to ±BW373U86 (=1).
Chain of Opiate δ (P41143 whole entry): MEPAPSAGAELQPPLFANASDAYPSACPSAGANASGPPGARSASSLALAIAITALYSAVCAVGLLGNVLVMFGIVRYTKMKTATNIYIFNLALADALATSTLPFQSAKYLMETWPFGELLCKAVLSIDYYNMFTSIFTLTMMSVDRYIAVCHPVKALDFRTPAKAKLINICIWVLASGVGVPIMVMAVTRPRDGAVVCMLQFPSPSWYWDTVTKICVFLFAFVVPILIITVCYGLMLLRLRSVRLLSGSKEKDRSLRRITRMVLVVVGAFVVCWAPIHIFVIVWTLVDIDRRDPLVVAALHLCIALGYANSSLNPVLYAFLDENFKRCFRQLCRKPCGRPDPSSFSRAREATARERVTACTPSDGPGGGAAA
Test [2] concerns the target T1, Opiate Receptor, kappa (OP2, KOP) (Homo sapiens, UniProt P41145).
T1 construct: expressed in transfected cells; host or cells: HEK-293 cells, membrane preparation
Briefly: biochemical. The test is classed as binding.

The target of test [3] is Opiate Receptor, μ (OP3, MOP) (Homo sapiens, UniProt P35372). Briefly: Radioligand competition binding, Opiate Receptor, μ (OP3, MOP), [3H]-diprenorphine, CHO-K1 cells.
Chain of Opiate Receptor, μ (OP3, MOP) (P35372 whole entry): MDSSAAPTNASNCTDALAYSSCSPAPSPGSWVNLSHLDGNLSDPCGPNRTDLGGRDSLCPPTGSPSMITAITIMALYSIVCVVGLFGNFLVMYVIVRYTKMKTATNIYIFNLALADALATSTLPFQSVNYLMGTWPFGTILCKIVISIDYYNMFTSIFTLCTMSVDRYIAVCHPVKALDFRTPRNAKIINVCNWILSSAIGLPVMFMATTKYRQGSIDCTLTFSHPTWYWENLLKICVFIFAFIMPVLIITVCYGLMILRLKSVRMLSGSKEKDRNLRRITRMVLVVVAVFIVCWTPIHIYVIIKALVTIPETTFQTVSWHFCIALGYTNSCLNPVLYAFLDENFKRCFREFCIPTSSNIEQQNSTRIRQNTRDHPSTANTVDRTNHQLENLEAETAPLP
For a further test, the target named is Delta Opioid Receptor. Put plainly: Delta Opioid Receptor Binding, forebrain, representative data set. The settings on record: radioligand [3H]Enkephalin, DPDPE, read-out: Kd (binding affinity). As for the experimental part: Binding characteristics for various receptors including, but not limited to, delta, kappa, and mu opioid receptors are determined.

T1 sequence (P41145 whole entry): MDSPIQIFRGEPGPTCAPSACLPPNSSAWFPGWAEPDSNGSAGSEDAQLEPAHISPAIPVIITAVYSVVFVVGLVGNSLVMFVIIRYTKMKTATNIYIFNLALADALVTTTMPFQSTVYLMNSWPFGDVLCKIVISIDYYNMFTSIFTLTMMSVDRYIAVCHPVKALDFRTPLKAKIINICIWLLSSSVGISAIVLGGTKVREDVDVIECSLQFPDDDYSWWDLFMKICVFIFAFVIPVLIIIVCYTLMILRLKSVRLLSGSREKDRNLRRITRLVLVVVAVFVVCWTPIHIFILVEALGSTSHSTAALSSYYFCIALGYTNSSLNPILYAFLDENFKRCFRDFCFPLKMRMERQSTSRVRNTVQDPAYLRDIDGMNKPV
Chain of Opiate Receptor, delta (OP1, DOP) (P41143 whole entry): as the sequence (P41143 whole entry) above

For `C=CCN1CCN(C(c2ccc(C(=O)N(CC)CC)cc2)c2cccc(OCCOCCOCCOCCOCCOCCOCCOC)c2)CC1` (centres unmarked) [mPEG7-demethyl-BW373U86, 4-[(4-Allyl-1-piperazinyl)-3-O-methoxy(heptaethylene glycol)benzyl]-N,N-diethylbenzamide], in test [1] (read-out: IC50), the pIC50 is 5.46. The pKi in test [1] (read-out: Ki) is 5.91.

With `C=CCN1C[C@H](C)N([C@H](c2ccc(C(=O)N(CC)CC)cc2)c2cccc(OCCOCCOCCOC)c2)C[C@H]1C` [mPEG-3 + BW373U86, (+)-4-[(αR)-α-((2S,5R)-4-Allyl-2,5-dimethyl-1-piperazinyl)-3-O-methoxy(triethylene glycol)benzyl]-N,N-diethylbenzamid], the pKi is 6.31 on Opiate δ (Table 1) and 6.59 in test [1] (read-out: Ki). Besides, the negative logarithm of the IC50 (pIC50) in test [1] (read-out: IC50) was 6.14.

In test [2], `CCN(CC)C(=O)c1ccc(C(c2cccc(O)c2)N2CCN(Cc3ccccc3)CC2)cc1` (centres unmarked) [N-benzyl-deallyl-demethyl-BW373U86, 4-[(4-Benzyl-1-piperazinyl)-3-hydroxbenzyl]-N,N-diethylbenzamid] gave a negative-log IC50 (pIC50) of 5.63, a pKi of 6.02 and a nH of 0.95. In test [3], this compound gave a pIC50 of 5.56, a pKi of 5.95 and a nH of 0.90. In test [1], this compound showed a pIC50 of 8.88, a pKi of 9.33 and a nH of 0.99.

Take `C=CCN1C[C@H](C)N([C@H](c2ccc(C(=O)N(CC)CC)cc2)c2cccc(OCCOCCOCCOCCOCCOCCOCCOC)c2)C[C@H]1C` (racemic) [mPEG-7 ± BW373U86, (±)-4-[(αR)-α-((2S,5R)-4-Allyl-2,5-dimethyl-1-piperazinyl)-3-O-methoxy(heptaethylene glycol)benzyl]-N,N-diethylbenzamid]: the Fold change at Opiate δ was around 298. In addition, on Opiate δ (Table 1), the pKi is around 5.88.

`C=CCN1C[C@H](C)N([C@H](c2ccc(C(=O)N(CC)CC)cc2)c2cccc(OCCOCCOCCOC)c2)C[C@H]1C` (racemic) [mPEG-3 ± BW373U86, (±)-4-[(αR)-α-((2S,5R)-4-Allyl-2,5-dimethyl-1-piperazinyl)-3-O-methoxy(triethylene glycol)benzyl]-N,N-diethylbenzamid]: the pKi on Opiate δ (Table 1) is around 6.38.

In test [1], `CCN(CC)C(=O)c1ccc(C(c2cccc(OCCOCCOCCOCCOCCOCCOCCOC)c2)N2CCN(Cc3ccccc3)CC2)cc1` (centres unmarked) [mPEG7-N-benzyl-deallyl-demethyl-BW373U86, 4-[(4-Benzyl-1-piperazinyl)-3-O-methoxy(heptaethyleneglycol)benzyl]-N,N-diethylbenzamid] showed a negative logarithm of the IC50 (pIC50) of 6.97, a pKi of 7.43 and a nH of 1.08.

Turning to `Br.Br.C=CCN1CC(C)N(C(c2ccc(C(=O)N(CC)CC)cc2)c2cccc(O)c2)CC1C` (racemic) [(+/−) BW373U86 dihydrobromide, reference compound], the nH in test [2] and in test [3] was 0.92 throughout. The negative-log IC50 (pIC50) in test [2] (read-out: IC50) was 6.25; in test [3] (read-out: IC50), 6.18; in test [1] (read-out: IC50), 8.49. Further, the results for the pKi in test [2] (read-out: Ki), in test [3] (read-out: Ki) and in test [1] (read-out: Ki) were 6.65, 6.57 and 8.94, respectively.

For the compound `CCN(CC)C(=O)c1ccc([C@H](c2cccc(O)c2)N2C[C@@H](C)N(CCOCCOCCOC)C[C@@H]2C)cc1` (racemic) [mPEG3-N-(+/−)-BW373U86, (±)-4-[(αR)-α-((2S,5R)-4-methoxy(triethylene glycol)-2,5-dimethyl-1-piperazinyl)-3-hydroxybenzyl]-N,N-diethylbenzamide], the results for the pIC50 in test [3] (read-out: IC50) and in test [1] (read-out: IC50) were 5.03 and 6.12, respectively. Moreover, the results for the negative logarithm of the Ki (pKi) in test [3] (read-out: Ki) and in test [1] (read-out: Ki) were 5.42 and 6.57, respectively.

Consider `C=CCN1C[C@H](C)N([C@H](c2ccc(C(=O)N(CC)CC)cc2)c2cccc(O)c2)C[C@H]1C` [(+) BW373U86, (+)-4-[(αR)-α-((2S,5R)-4-Allyl-2,5-dimethyl-1-piperazinyl)-3-hydroxbenzyl]-N,N-diethylbenzamide, reference compound], for which the negative-log IC50 (pIC50) is 6.65 in test [2], 6.51 in test [3] and 9.00 in test [1]. For the same compound, the results for the negative logarithm of the Ki (pKi) in test [2], in test [3] and in test [1] were 7.05, 6.90 and 9.45, respectively. Further, the figures for the nH in test [2], in test [3] and in test [1] were 0.78, 0.83 and 0.91, respectively.

In test [1], `CCN(CC)C(=O)c1ccc(C(c2cccc(OCCOCCOCCOC)c2)N2CCN(Cc3ccccc3)CC2)cc1` (centres unmarked) [mPEG3-N-benzyl-deallyl-demethyl-BW373U86, 4-[(4-Benzyl-1-piperazinyl)-3-O-methoxy(triethyleneglycol)benzyl]-N,N-diethylbenzamide] had a negative-log IC50 (pIC50) of 6.67, a negative logarithm of the Ki (pKi) of 7.13 and a nH of 1.50.

As to DPDPE [[3H]Enkephalin, DPDPE], the negative logarithm of the Kd (pKd) at Delta Opioid Receptor is 8.68.

Turning to `C=CCN1CCN(C(c2ccc(C(=O)N(CC)CC)cc2)c2cccc(OCCOCCOCCOC)c2)CC1` (centres unmarked) [mPEG3-demethyl-BW373U86, 4-[(4-Allyl-1-piperazinyl)-3-O-methoxy(triethyleneglycol)benzy]-N,N-diethylbenzamid], in test [1] (read-out: IC50), the negative logarithm of the IC50 (pIC50) is 5.22. In test [1] (read-out: Ki), the negative-log Ki (pKi) is 5.67.

Regarding `C=CCN1CCN(C(c2ccc(C(=O)N(CC)CC)cc2)c2cccc(O)c2)CC1` (centres unmarked) [demethyl-BW373U86, 4-[(4-Allyl-1-piperazinyl)-3-hydroxbenzyl]-N,N-diethylbenzamid], the nH is 0.87 in test [2], 1.02 in test [3] and 1.10 in test [1]. In addition, the pIC50 in test [2] (read-out: IC50) is 6.00; in test [3] (read-out: IC50), 4.96; in test [1] (read-out: IC50) it was 8.15. In addition, the pKi in test [2] (read-out: Ki) was 6.40; in test [3] (read-out: Ki), 5.35; in test [1] (read-out: Ki) it was 8.60.

`C=CCN1C[C@H](C)N([C@H](c2ccc(C(=O)N(CC)CC)cc2)c2cccc(OCCOCCOCCOCCOCCOCCOCCOC)c2)C[C@H]1C` [mPEG-7 + BW373U86, (+)-4-[(αR)-α-((2S,5R)-4-Allyl-2,5-dimethyl-1-piperazinyl)-3-O-methoxy(heptaethylene glycol)benzyl]-N,N-diethylbenzamid] returned a Fold change at Opiate δ of 242.7. In addition, the pKi at Opiate δ (Table 1) was 6.06.

The compound `C=CCN1C[C@H](C)N([C@H](c2ccc(C(=O)N(CC)CC)cc2)c2cccc(O)c2)C[C@H]1C` (racemic) [±BW373U86, (±)-4-[(αR)-α-((2S,5R)-4-Allyl-2,5-dimethyl-1-piperazinyl)-3-hydroxbenzyl]-N,N-diethylbenzamide, reference compound] returned an inhibitory constant (Ki) at Opiate δ (Opiate δ, Ki (nM), Table 1) of 0.36 nM.

Values taken from patent publication US9061026B2, “Oligomer-diarylpiperazine conjugates” (priority 2008, dated 2015).
